Series [1] has as its system E. coli LPS endotoxemia. The series can be described thus: Survival in endotoxemia (E. coli LPS) in mice. The class given is in vivo, Balb/C mice. The following applies: 200 mg/kg i.p. 30 minutes prior to LPS and drug. The source says:
An adenosine kinase inhibitor (GP-1-515) was used to increase endogenous adenosine production in vivo.

For series [2], the system named is TNF-α. The series can be described thus: Inhibition of TNF-alpha production in endotoxemic mice (ELISA). The class given is in vivo, Balb/C mice. The note with it: 200 mg/kg i.p. 30 minutes prior to LPS and GP-1-515. The procedure:
In these experiments, plasma TNF-α levels were measured in GP-1-515and placebo-treated mice (8 animals per group). Balb/C mice received an intravenous injection of E. coli LPS (900 ug/animal) (Sigma Chemical Co.) followed immediately by a second injection with 0.1 mg/kg of GP-1-515 or vehicle. Some animals were pretreated with an intraperitoneal injection of the adenosine receptor antagonist 8SPT. One hour later, blood was obtained from ether anesthetized animals by intracardiac puncture using a heparinized syringe. Blood samples were chilled on ice, centrifuged at 5000 rpm in a microcentrifuge for 5 minutes, and the plasma removed. TNF-α levels in the plasma were assayed by ELISA according to the instructions provided by the manufacturer (Endogen, Cambridge, Mass.).
(In general: In an ELISA, binding on a coated surface is turned into a signal by an enzyme label.)

Series [3] concerns the target T1, adenosine kinase (Bos taurus, UniProt A0AAA9RZ79).
T1 construct: endogenous in cells; host or cells: capillary endothelial cells from bovine heart
Put plainly: Adenosine kinase inhibition in intact cells (capillary endothelial cells from bovine heart). The class given is cell-based. The note with it: 20 μM 2'-deoxycoformycin, 5 μM [3H]adenosine. On the procedure: Inhibition of adenosine kinase in intact cells was determined from the amount of incorporation of radioisotope from adenosine into the adenylates (AMP, ADP and ATP) in the presence of adenosine deaminase inhibition. […] The media was then discarded and the cells were treated with 50 μl 0.4M perchloric acid, centrifuged and the supernalants neutralized with 100 μl alanine: freon (1:4).

The target in series [4] is T2, purified pig heart adenosine kinase (Sus scrofa, UniProt A0A5G2R0F5).
T2 construct: purified pig heart adenosine kinase; from tissue; host or cells: pig heart
T2 sequence (A0A5G2R0F5 1-362): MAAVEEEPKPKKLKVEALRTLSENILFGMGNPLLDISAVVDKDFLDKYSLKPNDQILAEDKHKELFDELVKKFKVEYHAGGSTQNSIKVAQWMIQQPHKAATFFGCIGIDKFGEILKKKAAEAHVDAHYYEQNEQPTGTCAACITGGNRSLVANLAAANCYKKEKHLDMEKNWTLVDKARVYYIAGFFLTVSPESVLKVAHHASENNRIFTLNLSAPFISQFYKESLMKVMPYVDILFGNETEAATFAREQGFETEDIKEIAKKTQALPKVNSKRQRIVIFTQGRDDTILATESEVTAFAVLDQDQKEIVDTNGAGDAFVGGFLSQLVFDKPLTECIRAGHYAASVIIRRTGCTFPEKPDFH
Put plainly: Inhibition of adenosine kinase activity (purified pig heart enzyme). The class given is biochemical. On the procedure: Inhibition of enzyme activity was determined using a 0.1 mL assay mixture containing 50 mM Tris-maleate, pH 7.0, 0.1% (w/v) BSA, 1 mM ATP, 1 mM MgCl2, 0.5 μM [U-^14 C]adenosine (500 mCi/mmol) and 0.1 μg of purified pig heart adenosine kinase. Different concentrations of the test compounds were incubated in the assay mixture for 20 min. at 37° C. From each reaction mixture, 20 μl portions were removed and spotted on 2 cm^2 pieces of Whatman DE81 filter paper. […] The papers were dried, and [^14 C]AMP measured by scintillation counting.

Series [5] deals with fMLP-stimulated human neutrophils on human umbilical vein endothelial cells. Put plainly: Inhibition of neutrophil adherence to endothelial cells. The series is classed as cell-based. The following applies: for inhibition of neutrophil adhesion to endothelial cells: fMLP-stimulated neutrophils, 2 hours, 37° C.; for effect of adenosine deaminase co-treatment on inhibition of neutrophil adhesion: with adenosine deaminase 0.125 U/mL. On the procedure:
The ability of an adenosine kinase inhibitor to affect neutrophil adherence to fibroblasts and endothelial cells was evaluated in a cell culture model. […] These incubations were carried out in the presence of fMLP-stimulated human neutrophils isolated from whole blood (1.25×10^6/mL) with or without adenosine deaminase (0.125 U/mL). At the end of the incubation, the medium was removed and the monolayers of fibroblasts or endothelial cells and adherent neutrophils were fixed by addition of formaldehyde (3.7%) and, after washing to remove non-adherent neutrophils, adherent neutrophils were stained with Weigart's hematoxylin and counted under a light microscope.

Series [6] has as its system adenosine release, rat cardiomyocytes. The note with it: cited from earlier work.
For series [7], the system named is adenosine release, isolated guinea pig hearts. The following applies: cited from earlier work.
Series [8] concerns cardiac adenosine kinase. Put plainly: Inhibition of cardiac adenosine kinase in vivo. The note with it: conscious rats, i.v.
Series [9] can be described thus: Acute i.v. hemodynamics in the rat. The class given is in vivo, Sprague Dawley rats. The procedure: The ability of the adenosine kinase inhibitor GP-1-238 to show effects on blood pressure, heart rate or body temperature was compared in anesthetized and conscious rats. Sprague Dawley rats were anesthetized with pentobarbital and catheterized in the jugular vein and carotid artery. GP-1-238 (0.1-5 mg/kg/min) was infused intravenously in stepwise increments (0.2 mL/min×5 minutes). The experiments in conscious rats were conducted in the same manner after rats had been catheterized and allowed to recover for 2 days following surgery.

The subject of series [10] is adenosine uptake, rat brain slices. The note with it: cited from earlier work.
The conditions of series [11]: mouse, in vivo; cited from earlier work.
The subject of series [12] is adenosine uptake, guinea pig brain slices. The following applies: cited from earlier work.
For series [13] the following is noted: cited from earlier work.
Series [14] relates to Mycobacterium butyricum adjuvant arthritis. Put plainly: Adjuvant arthritis in rats. The class given is in vivo, Lewis rats. The procedure: Lewis rats received a single subcutaneous tail injection of 0.75 mg Mycobacterium butyricum mixed in paraffin oil on day 0. […] Hind paw volume was measured by Mercury displacement.
Setting [15] is: conscious animals, doses greatly in excess of that required to inhibit cardiac adenosine kinase.

SMILES strings stand for the structures. “Also recorded” adds a separate entry of the source.

T1 sequence (A0AAA9RZ79 1-362): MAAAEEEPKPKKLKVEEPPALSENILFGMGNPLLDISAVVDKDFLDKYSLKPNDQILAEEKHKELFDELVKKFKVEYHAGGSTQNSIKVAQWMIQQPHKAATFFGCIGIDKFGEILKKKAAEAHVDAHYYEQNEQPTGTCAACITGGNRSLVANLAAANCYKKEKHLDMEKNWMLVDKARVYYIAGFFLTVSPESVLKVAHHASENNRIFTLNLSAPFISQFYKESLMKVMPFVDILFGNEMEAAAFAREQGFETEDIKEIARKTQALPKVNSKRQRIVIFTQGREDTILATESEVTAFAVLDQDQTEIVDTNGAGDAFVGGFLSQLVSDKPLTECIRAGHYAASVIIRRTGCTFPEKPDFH

For `Cn1c(=O)c2[nH]c(-c3ccc(S(=O)(=O)O)cc3)nc2n(C)c1=O` [8-p-sulphophenyltheophylline, reference compound], the “effect on GP-1-515-induced protection” value in [1] is given as “completely inhibited the protective effect of GP-1-515; also recorded: blocking the GP-1-515-induced protection”. In addition, the “effect on GP-1-515-induced decrease of plasma TNF-α” value in series [2] is listed as “The decrease was prevented”.
For the compound `C[C@H]1O[C@@H](n2nc(-c3ccccc3)c3c(Nc4ccccc4)ncnc32)[C@H](O)[C@@H]1O` [GP-1-665], the IC50 (in general, the concentration that gives 50% inhibition) in [3] came out at 4.5 nM.
Compound `OC[C@H]1O[C@@H](n2cc(-c3ccco3)c3c(Nc4ccccc4)ncnc32)[C@H](O)[C@@H]1O` [GP-1-718] displayed a half-maximal inhibitory concentration (IC50) in [4] of less than 10 nM.
`CNc1ncnc2c1ncn2[C@@H]1O[C@H](CN)[C@@H](O)[C@H]1O` [GP-1-272]: in series [5], the “inhibition of neutrophil adhesion to endothelial cells” value is reported as “inhibit neutrophil adhesion to endothelial cells; also recorded: dose-dependent inhibition” and the “effect of adenosine deaminase co-treatment on inhibition of neutrophil adhesion” value is given as “reversed by adenosine deaminase treatment; also recorded: reversal of this inhibition”.
For `OC[C@H]1O[C@@H](n2cnc3c2N=CNC[C@H]3O)C[C@@H]1O` [2'-deoxycoformycin], the “adenosine release from rat cardiomyocytes” value in series [6] (ADA inhibition alone) is listed as “no effect on adenosine release”.
Turning to `NC[C@H]1O[C@@H](n2cnc3c(N)ncnc32)[C@H](O)[C@@H]1O` [5'-amino-5'-deoxyadenosine], in series [7] (absence of ADA inhibition), the “adenosine release, isolated guinea pig hearts, no ADA inhibition” value is listed as “not apparent in the absence of ADA inhibition”. In addition, the “increase of adenosine release, isolated guinea pig hearts” value in series [7] (in the presence of EHNA) is 15 -fold. Also, the “increase in adenosine release from rat cardiomyocytes” value in [6] (inhibition of ADA together with adenosine kinase) is recorded as 6 -fold.
Turning to `NC[C@H]1O[C@@H](n2cnc3c(N)ncnc32)[C@H](O)[C@@H]1O` [GP-1-238], the “inhibition of adenosine kinase in vivo” value in series [8] is “completely inhibited adenosine kinase in vivo”. Moreover, in [9] (setting [15]), the “effect on blood pressure, conscious animals” value was “No effects were observed”; the “effect on heart rate, conscious animals” value is “No effects were observed”; the “effect on temperature, conscious animals” value is “No effects were observed”. Also, the “hemodynamic effects, conscious rats” value in [9] (i.v. infusion 0.1-5 mg/kg/min, conscious rats, in contrast to anesthetized animals) is “no hemodynamic effects were seen”.
For the compound `C[C@H]1O[C@@H](n2cc(I)c3c(N)ncnc32)[C@H](O)[C@@H]1O` [GP-1-456, 5'-deoxy-5-iodotubercidin], in [5], the “inhibition of neutrophil adhesion to endothelial cells” value is “inhibit neutrophil adhesion to endothelial cells; also recorded: dose-dependent inhibition” and the “effect of adenosine deaminase co-treatment on inhibition of neutrophil adhesion” value is “reversed by adenosine deaminase treatment; also recorded: reversal of this inhibition”. Also, in series [10], the “adenosine uptake, rat brain slices” value is given as “inhibited”. In addition, in series [11], the “body temperature in mice” value is listed as “hypothermia”; the “flaccidity and locomotor activity in mice” value was “pronounced general flaccidity and much-reduced spontaneous locomotor activity”. In series [12], the “adenosine uptake, guinea pig brain slices” value is “inhibited”. Also, in series [13], the “blood pressure and heart rate in anesthetized rats” value is “decrease blood pressure and heart rate”. In addition, the “reduction of hind paw edema” value in [14] (3 mg/kg p.o.) is “significant reduction of hind paw edema”. The “total mean hind paw edema” value in [14] (3 mg/kg p.o. day 1 through 19, day 19, untreated 2.55±0.20, p<0.05) is 1.41 ± 0.21 mL.
